The text below walks through data of patent US10105326B2, “Pharmaceutical solution comprising dopamine for use in treating parkinson's disease” (CENTRE HOSPITALIER REGIONAL ET UNIVERSITAIRE DE LILLE (CHRU), priority 2014, dated 2018).

Common to all, as to assay type: in vivo
One series deals with striatum of MPTP mice. As to the kind of experiment: Neurotransmitter content in striatum of MPTP mice (HPLC). The method, then:
(§1) Five-month-old male C57B1/6J mice (Elevage Janvier, Le Genest St Isle, France) weighing 28-30 g were used. The mice received four intraperitoneal injections (with 2 h intervals) of saline solution containing 0 (“Saline mice”) or 20 mg/kg of MPTP (“MPTP mice”) (Sigma Aldrich, St Louis, Mo. USA). Saline or MPTP were administrated at day 0 (D0), the central continuous dopamine infusion or peripheral L-dopa treatment were delivered from 7th to the 14th day (D7 to D14), and then spontaneous locomotor measurement and sacrifice were performed at D14.

The test system of another series is TH-ir neurons in SNpc. As to the kind of experiment: TH-ir neurons counting in SNpc of MPTP mice. How it is done:
as §1
The brains were removed and, after a post-fixation process, were cryoprotected and frozen. […]
The number of TH-ir neurons (“Tyrosine Hydroxylase-Immunoreactive») in the SNpc was assessed by counting TH-ir neurons of the left and right hemisphere in every 4th section of the SNpc of all experimental groups. […] For the unbiased quantification, a line was drawn around the SNpc of each section. […] Cells were counted with a 40× using a Nikon Eclipse E600 microscope (Tokyo, Japan). […] As no difference between left and right SNps was found, TH-ir counted neurons of both sides were pooled and for each animal, a sum of neurons counted in each section was calculated. […]

Series [1] deals with TH-ir terminals in dorsal striatum. As to the kind of experiment: TH-ir optical density in dorsal striatum of MPTP mice. The settings on record: MPTP administration.
The subject of another series is MPTP mice. As to the kind of experiment: Spontaneous motor activity (actimetry) in MPTP mice. The settings on record: for spontaneous locomotor activity: 7 days. How it is done:
as §1
After 7 days of treatment (i.p. L-dopa or i.c.v dopamine), spontaneous motor activity was recorded in an actimeter (Panlab, Barcelona, Spain) during 10 minutes. The apparatus was a 45×45×35 cm transparent Plexiglas enclosure equipped with two frames of infrared beams. This apparatus allowed horizontal motor activity (distance traveled, speed, movement type) and rearing behavior to be measured based on infrared beams obstructions. Chosen parameters were collected by Actitrack software (Panlab, Barcelona, Spain).

Where [2] appears, read: peripheral L-dopa 50 and 100 mg/day.

As to `CN1CC=C(c2ccccc2)CC1` [MPTP, 1-methyl-4-phenyl-1,2,3,6-tetrahydropyridine], in the series with striatum of MPTP mice (MPTP intoxication), the “reduction in DOPAC content in each striatum” value is given as 70-80%, the “reduction in HIA content in each striatum” value is listed as 20-50%, the “reduction in HVA content in each striatum” value is recorded as 60-70% and the “reduction in noradrenalin content in each striatum” value is given as 35-50%. For the same molecule, the “reduction in serotonin content in each striatum” value with striatum of MPTP mice (MPTP intoxication) is listed as 40-40%. Besides, in the series with striatum of MPTP mice (MPTP intoxication, 4 x 20 mg/kg i.p.), the “reduction in dopamine content in each striatum” value is reported as 85-90%. The “loss of TH-expressing neurons in the SNpc compared to saline-injected mice” value with TH-ir neurons in SNpc (MPTP administration) is listed as 44.3%. Besides, the “loss of TH-expressing neurons in the striatum compared to saline-injected mice” value in series [1] was 38.2%.
As for `N[C@@H](Cc1ccc(O)c(O)c1)C(=O)O` [L-dopa, L-3,4-dihydroxyphenylalanine], the abnormal behaviors result in the series on MPTP mice (high doses of L-Dopa) is on record as “abnormal behaviors such as dyskinesia”. For the same molecule, the spontaneous locomotor activity entry in the series on MPTP mice (peripheral L-dopa 50 mg/kg/day) is reported as “restored”. For the same molecule, the spontaneous locomotor activity entry in the series with MPTP mice (peripheral L-dopa 25 and 100 mg/day) is “no effect”. Further, in the series on striatum of MPTP mice (peripheral L-dopa 25 mg/day), the “dopaminergic neurotransmission in striatum” value is given as “no effect on dopaminergic neurotransmission”; the “serotonin and noradrenalin in both striatum” value was “increase in serotonin and noradrenalin in both striatum”. Besides, in the series on striatum of MPTP mice (setting [2]), the “dopamine and metabolites in both striatum” value was “significant increase in dopamine and metabolites in both striatum”; the “serotonin and noradrenalin content” value was “no supplemental effect on serotonin and noradrenalin content”. Moreover, the “effect on TH-ir neurons in SNpc” value in the series on TH-ir neurons in SNpc (L-dopa treatment, 7 days) is recorded as “no significant effect”.
